Measurements taken from US10435435B2, “Quinstatin compounds” (THE ARIZONA BOARD OF REGENTS ON BEHALF OF ARIZONA STATE …, priority 2015, dated 2019).
Like-named read-outs stand apart in the source and are kept apart here. Square brackets hold non-standard residues; d marks the D form. Peptide text beside a SMILES is read from it. * marks the point of attachment. Dolaproine = CO[C@@H]([C@@H]1CCCN1)[C@@H](C)C(=O)O; Dil = CC[C@H](C)[C@H](NC)[C@@H](CC(=O)O)OC; X1 = C[C@@H](N*)[C@@H](O)c1ccccc1; NMeV = CN[C@H](C(=O)O)C(C)C

Key:
[1] = system: BXPC-3 (pancreas) cancer cell line; experiment: NCI sulforhodamine B growth inhibition, BXPC-3; format: cell-based, human; conditions: BXPC-3, 48 h
Experimental: (§1) Next, serial dilutions of the compounds were added.

[2] = system: MCF-7 (breast) cancer cell line; experiment: NCI sulforhodamine B growth inhibition, MCF-7; format: cell-based, human; conditions: MCF-7, 48 h
Experimental: as §1

[3] = system: SF-268 (CNS) cancer cell line; experiment: NCI sulforhodamine B growth inhibition, SF-268; format: cell-based, human; conditions: SF-268, 48 h
Experimental: as §1

[4] = system: NCI-H460 (lung) cancer cell line; experiment: NCI sulforhodamine B growth inhibition, NCI-H460; format: cell-based, human; conditions: NCI-H460, 48 h
Experimental: as §1

[5] = system: KM20L2 (colon) cancer cell line; experiment: NCI sulforhodamine B growth inhibition, KM20L2; format: cell-based, human; conditions: KM20L2, 48 h
Experimental: as §1

[6] = system: DU-145 (prostate) cancer cell line; experiment: NCI sulforhodamine B growth inhibition, DU-145; format: cell-based, human; conditions: DU-145, 48 h
Experimental: as §1

Human Cancer Cell Lines = system: Human Cancer Cell Lines
Experimental: Inhibition of human cancer cell growth was assessed using the National Cancer Institute's standard sulforhodamine B assay as previously described.^10 In summary, cells in a 5% fetal bovine serum/RPMI1640 medium were inoculated in 96-well plates and incubated for 24 hrs. Next, serial dilutions of the compounds were added. After 48 h, the plates were fixed with trichloroacetic acid, stained with sulforhodamine B, and read with an automated microplate reader.

[7] = bracketed value, read-out: GI50

Compound | GI50 [1] [ng/mL] | GI50 [1, 7] [pM] | GI50 [2] [ng/mL] | GI50 [2, 7] [pM] | GI50 [3] [ng/mL] | GI50 [3, 7] [pM] | GI50 [4] [ng/mL] | GI50 [4, 7] [pM] | GI50 [5] [ng/mL] | GI50 [5, 7] [pM] | GI50 [6] [ng/mL] | GI50 [6, 7] [pM] | inhibition level compared with dolastatin 10 (Human Cancer Cell Lines; in one of the experiments) | increase in cancer cell growth inhibition as compared to auristatin AQ (Human Cancer Cell Lines; comparison with auristatin AQ)
CC[C@H](C)[C@@H]([C@@H](CC(=O)N1CCC[C@H]1[C@H](OC)[C@@H](C)C(=O)NCCc1cnc2ccccc2c1)OC)N(C)C(=O)[C@@H](NC(=O)[C@H](C(C)C)N(C)C)C(C)C [Quinstatin 3, 3-(1′-Dov-Val-Dil-Dap-2′-ethyl)-quinoline] | 21 | 27900 | 0.23 | 310 | 0.29 | 380 | 31 | 41200 | 0.4 | 530 | 0.2 | 260 | – | –
CC[C@H](C)[C@@H]([C@@H](CC(=O)N1CCC[C@H]1[C@H](OC)[C@@H](C)C(=O)N[C@H](C)[C@@H](O)c1ccccc1)OC)N(C)C(=O)[C@@H](NC(=O)[C@@H](NC)C(C)C)C(C)C [Desmethylauristatin E, desmethyl auristatin E, reference compound] (H-[NMeV]V[Dil][Dolaproine]-X1) | >1 | > 1390 | 0.29 | 404 | 0.31 | 432 | 0.49 | 683 | 0.43 | 599 | 0.3 | 418 | – | –
CC[C@H](C)[C@@H]([C@@H](CC(=O)N1CCC[C@H]1[C@H](OC)[C@@H](C)C(=O)NCCc1cccc2cccnc12)OC)N(C)C(=O)[C@@H](NC(=O)[C@H](C(C)C)N(C)C)C(C)C [Quinstatin 8, 8-(1′-Dov-Val-Dil-Dap-2′-ethyl)-quinoline] | 0.5 | 425 | 0.04 | 53 | 0.023 | 30 | 0.9 | 1190 | 0.04 | 53 | 0.04 | 53 | at the dolastatin 10 level, but not consistently | –
CC[C@H](C)[C@@H]([C@@H](CC(=O)N1CCC[C@H]1[C@H](OC)[C@@H](C)C(=O)NCCc1ccc2ncccc2c1)OC)N(C)C(=O)[C@@H](NC(=O)[C@H](C(C)C)N(C)C)C(C)C [Quinstatin 6, Dov-Val-Dil-Dap-2-(quinolin-6-yl)ethylamine] | 2 | 2660 | 0.4 | 532 | 0.3 | 399 | 4.3 | 5710 | 0.39 | 518 | 0.3 | 399 | – | –
CC[C@H](C)[C@@H]([C@@H](CC(=O)N1CCC[C@H]1[C@H](OC)[C@@H](C)C(=O)N[C@H](C)[C@@H](O)c1ccccc1)OC)N(C)C(=O)[C@@H](NC(=O)[C@H](C(C)C)N(C)C)C(C)C [Auristatin E, auristatin E, reference compound] | >1 | > 1370 | 0.17 | 232 | 0.36 | 492 | 0.39 | 533 | 0.36 | 492 | 0.31 | 424 | – | –
CC[C@H](C)[C@@H]([C@@H](CC(=O)N1CCC[C@H]1[C@H](OC)[C@@H](C)C(=O)NCCc1ccc2cccnc2c1)OC)N(C)C(=O)[C@@H](NC(=O)[C@H](C(C)C)N(C)C)C(C)C [Quinstatin 7, 7-(1′-Dov-Val-Dil-Dap-2′-ethyl)-quinoline] | 3.1 | 4120 | 0.03 | 39 | 0.024 | 32 | 11 | 14600 | 0.041 | 54 | 0.03 | 40 | – | –
CC[C@H](C)[C@@H]([C@@H](CC(=O)N1CCC[C@H]1[C@H](OC)[C@@H](C)C(=O)N[C@@H](Cc1ccccc1)c1nccs1)OC)N(C)C(=O)[C@@H](NC(=O)[C@H](C(C)C)N(C)C)C(C)C [Dolastatin 10, dolastatin 10, reference compound] | 0.04 | 51 | 0.0042 | 5 | 0.0043 | 6 | 0.18 | 229 | 0.008 | 10 | 0.0052 | 7 | – | –
CC[C@H](C)[C@@H]([C@@H](CC(=O)N1CCC[C@H]1[C@H](OC)[C@@H](C)C(=O)NCCc1ccc2ccccc2n1)OC)N(C)C(=O)[C@@H](NC(=O)[C@H](C(C)C)N(C)C)C(C)C [Quinstatin 2, 2-(1′-Dov-Val-Dil-Dap-2′-ethyl)-quinoline] | 9.3 | 12400 | 0.31 | 412 | 0.23 | 306 | 5.1 | 6780 | 0.33 | 438 | 0.31 | 412 | – | ten to one hundred times
